Results: patent US8613929B2, “Methods and compositions for targeting agents into and across the blood-brain barrier and other endothelial cell microvascular barriers” (priority 2003, dated 2013)

Tests used:
brain cortex [1] = assay: In vivo brain distribution: HRP activity in brain cortex homogenate samples; parameters: species or system Guinea pigs; details: 1.5 h after intracarotid bolus injection, 500 microgram/ml HRP equivalent in 0.5 ml saline (FIG. 18)
Protocol: Brain uptake of CRM197 or holo-transferrin (TrF) conjugated to HRP (2:1 weight/weight ratio) was determined 1.5 h after an intracarotid bolus injection of the conjugates (corresponding to a concentration of 500 microgram/ml in 0.5 ml saline of un-conjugated HRP), and compared to an equal concentration of free HRP, in young male Guinea pigs (Dunkin-Hartley HsdPoc:HD, 250-300 g). The proteins were conjugated to HRP by means of a HRP conjugation kit according to the manufacturers instructions (α Diagnostic International, San Antonio, Tex., USA). In addition, conjugated proteins were further purified on a HiPrep 16/60 column packed with Sephacryl S-200 HR matrix (Amersham Biosciences, UK). Briefly, the animals were anesthetized with isoflurane inhalation (4% induction, 1-1.5% maintenance) in an air/oxygen mixture (2:1). A cannula was placed in the carotid artery for blood sample collection and drug administration. […]
The cortex of perfused brains (and one non-perfused control brain) was dissected and weighted. […] Tissue/cells were lysed by an aqueous solution of 0.1% Na-deoxycholate (final concentration) before the HRP activity was detected in the clear supernatant of the spun-down homogenates using a standard colorimetric assay with the appropriate calibration curves and corrections for dilutions and protein content of the supernatants.

brain cortex [2] = details: 1.5 h after intracarotid bolus injection (FIG. 19)
brain = details: guinea pig, in vivo
[3] = test system: BCEC+ astrocyte co-cultures; details: FIG. 2; earlier experiments (Gaillard 2000a); cited from earlier work
LPSS14 (DTR) = LPSS14 (DTR) (Bos taurus, UniProt E1BIN8); type: cell-based, bovine
LPSS14 (DTR), sequence (E1BIN8 24-208 limits assumed): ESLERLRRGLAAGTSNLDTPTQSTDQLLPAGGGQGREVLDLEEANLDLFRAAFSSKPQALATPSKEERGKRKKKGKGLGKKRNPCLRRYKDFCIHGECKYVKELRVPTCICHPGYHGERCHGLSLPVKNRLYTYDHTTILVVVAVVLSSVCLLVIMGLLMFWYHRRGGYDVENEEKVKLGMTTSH

free HRP: un-conjugated horseradish peroxidase, a 40 kDa enzyme
HRP activity in brain cortex homogenate samples (homogenate, parenchyma, capillaries) (brain cortex [1]): below the detection limit | TMB staining of cryosections of well-perfused brains (brain cortex [2]): no visible staining | staining for CRM197 by immunohistochemistry for diphtheria toxin (brain): not observed

C[C@@H]1C[C@@H]([C@H](O)CC2CC(=O)NC(=O)C2)C(=O)[C@@H](C)C1 [cycloheximide]
recovery of BCEC+ astrocyte co-cultures from LPS [3]: completely inhibit the recovery phase

heparin
toxicity consistent with a higher concentration of DT (LPSS14 (DTR); heparin 125 microgram/ml 1 h pretreatment, 100 ng/ml DT): 10 fold | DT toxic effect took place earlier than untreated controls (LPSS14 (DTR); heparin 125 microgram/ml 1 h pretreatment, 100 ng/ml DT (FIG. 9)): about 1 hour | toxic effect after apical exposure to 100 ng/ml DT on pretreated BCEC (LPSS14 (DTR); pretreatment: CRM197 5 microgram/ml 1 h, heparin 125 microgram/ml 1 h, LPS 1 microgram/ml 2 h, BB94 10 micromolar 1 h (FIG. 8-10)): increased
